Consider 21 compounds from article PMC7775894 (Bioorganic chemistry, 2020).

In data set [1] the test system is M. tb H37Rv strain. The experiment in a line: Microplate alamarBlue assay. It counts as cell-based, Mycobacterium tuberculosis.
In another data set the test system is XDR M. tb strains. The experiment in a line: microbe, parasite or virus in culture. Type of data set: cell-based. The conditions noted are these: Mycobacterium tuberculosis, read-out: MIC against XDR M. tb strains.
Another data set deals with M. tb V4207/DS. The experiment in a line: microbe, parasite or virus in culture. Type of data set: cell-based. To be noted: Mycobacterium tuberculosis, read-out: M. tb MIC V4207/DS.
The next data set has as its system Vero cells. The experiment in a line: Cytotoxicity on Vero cells. The conditions noted are these: SI = IC50(Vero)/MIC(H37Rv). Type of data set: cell-based.
Data set [2] deals with Mycobacterium abscessus (M. abs). The experiment in a line: MABA MIC against M. abs. Type of data set: cell-based. The conditions noted are these: for MIC: Mycobacteroides abscessus, read-out: M. abs MIC.
The test system of data set [3] is Mycobacterium avium (M. avium). The experiment in a line: MABA MIC against M. avium. Type of data set: cell-based. The conditions noted are these: for MIC: Mycobacterium avium, read-out: M. avium MIC.
Data set [4] concerns DS- and DR-TB. The experiment in a line: MIC against both DS- and DR-TB as stated in text. The conditions noted are these: Mycobacterium tuberculosis, read-out: MIC against both DS- and DR-TB.
The next data set in a line: physchem. The conditions noted are these: water, kinetic from dmso stock.
The subject of data set [5] is M. tb H37Rv strain. To be noted: cited from earlier work.
The conditions of data set [6]: cited from earlier work.
Data set [7] relates to DS- and DR-TB. The conditions noted are these: cited from earlier work.
For data set [8] the following is noted: cited from earlier work. The source holds these as a separate data set.
The mark [9] stands for this setting: M. tb H37Rv, MABA, at least 90% growth inhibition, average of three measurements.
The mark [10] stands for this setting: Mycobacterium tuberculosis, H37RV.

≈ marks a conversion by molar mass, not a printed value. Where “and” joins values, the source holds several entries; their conditions need not be identical. Equal entries are not always repeated. Where two headings read alike, the source gives them in different places.

On to `O=C(CC12CC3CC(CC(C3)C1)C2)Nc1nc2ccccc2[nH]1` [13b, 2-(1-Adamantyl)-N-(1H-benzo[d]imidazol-2-yl)acetamide], for which the MIC in the data set on M. tb H37Rv strain [1] (setting [9]) and against M. tb H37Rv strain [1] (setting [10]) was over 103 µM throughout.
`O=C(NC12CC3CC(CC(O)(C3)C1)C2)c1cc2c(Cl)cc(Cl)cc2[nH]1` [8j, 4,6-dichloro-N-(3-hydroxyadamantan-1-yl)-1H-indole-2-carboxamide]: the MIC is 0.66 µM (≈ 0.25 µg/mL) in the data set on XDR M. tb strains; 1.32 µM (≈ 0.501 µg/mL) in the data set on M. tb V4207/DS; over 169 µM in data set [2]; over 169 µM in data set [3]; 1.32 µM (≈ 0.501 µg/mL) against M. tb H37Rv strain [1] (setting [9]). The “Selectivity index (SI)” value with Vero cells is given as at least 128.
Take `O=C(NC12CC3CC(CC(C3)C1)C2)c1cc2c(F)cc(F)cc2[nH]1` [8k, N-(1-Adamantyl)-4,6-difluoro-1H-indole-2-carboxamide]: the MIC in the data set on XDR M. tb strains is 0.012 µM (≈ 0.00396 µg/mL); in the data set on M. tb V4207/DS, 0.024 µM (≈ 0.00793 µg/mL); in the data set on DS- and DR-TB [4], 0.012 to 0.024 µM (≈ 0.00396 to 0.00793 µg/mL); in data set [2] it was over 194 µM; in data set [3], over 194 µM; against M. tb H37Rv strain [1] (setting [10]), 0.024 µM (≈ 0.00793 µg/mL). Besides, the “Selectivity index (SI)” value in the data set on Vero cells is at least 8205. Also, in “physchem”, the kinetic solubility turned out to be 7 µg/mL (≈ 21.2 µM).
In the case of `O=C(NC12CC3CC(CC(C3)C1)C2)c1cc2c(Cl)cc(Cl)cc2[nH]1` [compound 2, N-(1-adamantyl)-4,6-dichloroindole-2-carboxamide], in the data set on M. tb H37Rv strain [5] (ref 45), the MIC is 0.011 μM and 0.011 [45] μM. Moreover, the in vivo activity result in data set [6] (due to poor bioavailability) and in data set [6] (likely due to poor bioavailability) was “inactive in vivo” each time.
The compound `COc1cccc2[nH]c(C(=O)NC34CC5CC(CC(O)(C5)C3)C4)cc12` [8c, N-(3-hydroxyadamantan-1-yl)-4-methoxy-1H-indole-2-carboxamide] returned an MIC in the data set with M. tb H37Rv strain [1] (setting [10]) of 11.7 µM (≈ 3.98 µg/mL). In “physchem”, the solubility (kinetic) amounted to 30 µg/mL (≈ 88.1 µM).
`Cc1ccc2[nH]c(C(=O)NC34CC5CC(CC(O)(C5)C3)C4)cc2c1` [8g, N-(3-hydroxyadamantan-1-yl)-5-methyl-1H-indole-2-carboxamide]: the MIC in the data set on M. tb H37Rv strain [1] (setting [10]) turned out to be 24.7 µM (≈ 8.01 µg/mL).
As to `COc1ccc2[nH]c(C(=O)NC34CC5CC(CC(C5)C3)C4)cc2c1` [8d, N-(1-Adamantyl)-5-methoxy-1H-indole-2-carboxamide], the MIC was 0.39 to 0.77 µM (≈ 0.127 to 0.25 µg/mL) with M. tb V4207/DS, over 197 µM in data set [2], over 197 µM in [3] and 0.77 µM (≈ 0.25 µg/mL) against M. tb H37Rv strain [1] (setting [10]). For the same compound, the “Selectivity index (SI)” value with Vero cells is given as at least 256.
Consider `O=C(NC12CC3CC(CC(O)(C3)C1)C2)c1cc2cc(Cl)ccc2[nH]1` [8h, 5-chloro-N-(3-hydroxyadamantan-1-yl)-1H-indole-2-carboxamide], for which the MIC with M. tb H37Rv strain [1] (setting [9]) and against M. tb H37Rv strain [1] (setting [10]) was over 93 µM each time.
As for `O=C(Nc1ccc(F)c(F)c1F)NC1C2CC3CC(C2)CC1C3` (centres unmarked) [compound 4], the MIC in the data set with M. tb H37Rv strain [5] (ref 26, 43) is 0.03–0.3 [26, 43] μM.
Take `COc1ccc2[nH]c(C(=O)NC34CC5CC(CC(O)(C5)C3)C4)cc2c1` [8e, N-(3-hydroxyadamantan-1-yl)-5-methoxy-1H-indole-2-carboxamide]: the MIC against M. tb H37Rv strain [1] (setting [10]) came out at 47 µM (≈ 16 µg/mL).
Consider `Cc1ccc2[nH]c(C(=O)NC34CC5CC(CC(C5)C3)C4)cc2c1` [8f, N-(1-Adamantyl)-5-methyl-1H-indole-2-carboxamide], for which the MIC in the data set on M. tb V4207/DS is 0.2 µM (≈ 0.0617 µg/mL); in data set [2] it was over 207 µM; in data set [3] it was over 207 µM; in the data set with M. tb H37Rv strain [1] (setting [10]) it was 0.2 µM (≈ 0.0617 µg/mL). Also, the “Selectivity index (SI)” value in the data set on Vero cells is at least 1024.
In the data set on M. tb H37Rv strain [1] (setting [10]), `O=C(Nc1nc2ccccc2[nH]1)C12CC3CC(CC(C3)C1)C2` [13a, N-(1H-benzo[d]imidazol-2-yl)adamantane-1-carboxamide] had an MIC of 13.5 µM (≈ 3.99 µg/mL).
As for `O=C(Nc1cc(Cl)cc(Cl)c1)NC12CC3CC(CC(C3)C1)C2` [10a, 1-(1-Adamantyl)-3-(3,5-dichlorophenyl)urea], the figures for the MIC (with M. tb V4207/DS; in data set [2]; in data set [3]) were 1.47 µM (≈ 0.499 µg/mL), over 189 µM and 47.2 µM (≈ 16 µg/mL), respectively. In the data set on Vero cells, the “Selectivity index (SI)” value was 4.0. For the same compound, the “M. abs MIC” value in [2] (MABA) was over 189 µM.
On to `COc1nc2ccc(Br)cc2cc1[C@@H](c1ccccc1)[C@@](O)(CCN(C)C)c1cccc2ccccc12` [bedaquiline], for which, in the data set with DS- and DR-TB [7], the “MIC against both DS- and DR-TB” value is 0.11 µM (≈ 0.0611 µg/mL). Moreover, the logP in data set [8] is over 7.
As to `O=C(Nc1nc2ccccc2[nH]1)NC12CC3CC(CC(C3)C1)C2` [compound 12, 1-(1-adamantyl)-3-(1H-benzo[d]imidazol-2-yl)urea], the MIC against M. tb H37Rv strain [1] (setting [10]) is 25.8 µM (≈ 8.01 µg/mL).
For `CC1(C)CCC(NC(=O)c2cc3c(Cl)cc(Cl)cc3[nH]2)CC1` [compound 1], the MIC in the data set on M. tb H37Rv strain [5] (ref 23) was 0.015 [23] μM.
Regarding `O=C(NC12CC3CC(CC(O)(C3)C1)C2)c1cc2c(F)cc(F)cc2[nH]1` [8l, 4,6-difluoro-N-(3-hydroxyadamantan-1-yl)-1H-indole-2-carboxamide], the MIC in the data set with M. tb V4207/DS is 2.89 µM (≈ 1 µg/mL); in data set [2] it was over 185 µM; in data set [3] it was over 185 µM. Further, the “Selectivity index (SI)” value in the data set with Vero cells is on record as 32. Besides, the kinetic solubility in the data set “physchem” came out at 19 µg/mL (≈ 54.9 µM).
Take `O=C(NC12CC3CC(CC(O)(C3)C1)C2)c1cc2ccc(Br)cc2[nH]1` [8i, 6-bromo-N-(3-hydroxyadamantan-1-yl)-1H-indole-2-carboxamide]: the MIC in the data set with M. tb V4207/DS was 5.14 µM (≈ 2 µg/mL); in data set [2], over 164 µM; in data set [3] it was over 164 µM; with M. tb H37Rv strain [1] (setting [10]), 1.32 to 2.89 µM (≈ 0.514 to 1.13 µg/mL). Further, in the data set with Vero cells, the “Selectivity index (SI)” value worked out at 32.
`O=C(NC12CC3CC(CC(O)(C3)C1)C2)c1cc2ccccc2[nH]1` [8a, N-(3-hydroxyadamantan-1-yl)-1H-indole-2-carboxamide] registered an MIC in the data set on M. tb H37Rv strain [1] (setting [10]) of 51.5 µM (≈ 16 µg/mL).
Consider `COc1cccc2[nH]c(C(=O)NC34CC5CC(CC(C5)C3)C4)cc12` [8b, N-(1-Adamantyl)-4-methoxy-1H-indole-2-carboxamide], for which the MIC with M. tb V4207/DS was 0.096 µM (≈ 0.0311 µg/mL); in [2], 12.3 µM (≈ 3.99 µg/mL); in [3], over 197 µM; in the data set with M. tb H37Rv strain [1] (setting [10]) it was 0.096 µM (≈ 0.0311 µg/mL). The “Selectivity index (SI)” value in the data set with Vero cells is at least 2048. The “M. avium MIC” value in data set [3] (MABA) is over 197 µM. For the same compound, the kinetic solubility in “physchem” was 5 µg/mL (≈ 15.4 µM).
For `O=C(Nc1cc(Cl)cc(Cl)c1)NC12CC3CC(CC(O)(C3)C1)C2` [10b, 1-(3,5-dichlorophenyl)-3-(3-hydroxyadamantan-1-yl)urea], the MIC in the data set with M. tb H37Rv strain [1] (setting [10]) was over 90 µM.
